Measured values published in the NIST ThermoML archive (doi:10.1016/j.jct.2004.12.014).
Numbers after ± are expanded uncertainties.

What was measured:
[1] = xn = mol fraction of the nth substance listed; details: 318.15 K, 101 kPa, Liquid
[2] = excess molar enthalpy (molar enthalpy of mixing); xn = mol fraction of the nth substance listed; details: 318.15 K, 101 kPa, Liquid

CCCCCOC(=O)CC [pentyl propanoate] + CCCCCCC
Details	excess molar enthalpy [kcal/mol]	excess molar volume [m3/mol]
[1], x1 = 0.0556	–	6.6e-08 ± 1.6e-08
[1], x1 = 0.1092	–	1.1e-07 ± 1.6e-08
[1], x1 = 0.182	–	1.41e-07 ± 1.6e-08
[1], x1 = 0.217	–	1.68e-07 ± 1.6e-08
[1], x1 = 0.2721	–	1.85e-07 ± 1.6e-08
[1], x1 = 0.3275	–	1.96e-07 ± 1.6e-08
[1], x1 = 0.3857	–	1.98e-07 ± 1.6e-08
[1], x1 = 0.4428	–	1.92e-07 ± 1.6e-08
[1], x1 = 0.5013	–	1.78e-07 ± 1.6e-08
[1], x1 = 0.5611	–	1.59e-07 ± 1.6e-08
[1], x1 = 0.6204	–	1.37e-07 ± 1.6e-08
[1], x1 = 0.6824	–	1.03e-07 ± 1.6e-08
[1], x1 = 0.742	–	7.7e-08 ± 1.6e-08
[1], x1 = 0.8047	–	4.9e-08 ± 1.6e-08
[1], x1 = 0.8674	–	2.9e-08 ± 1.6e-08
[1], x1 = 0.9323	–	9e-09 ± 1.6e-08
[2], x1 = 0.0541	0.0384 ± 0.001	–
[2], x1 = 0.1161	0.0728 ± 0.00151	–
[2], x1 = 0.1808	0.101 ± 0.00194	–
[2], x1 = 0.2438	0.123 ± 0.00227	–
[2], x1 = 0.3073	0.141 ± 0.00263	–
[2], x1 = 0.3672	0.152 ± 0.00263	–
[2], x1 = 0.4224	0.157 ± 0.00287	–
[2], x1 = 0.445	0.158 ± 0.00287	–
[2], x1 = 0.4906	0.159 ± 0.00287	–
[2], x1 = 0.5414	0.157 ± 0.00287	–
[2], x1 = 0.5976	0.149 ± 0.00263	–
[2], x1 = 0.6595	0.137 ± 0.00239	–
[2], x1 = 0.725	0.119 ± 0.00222	–
[2], x1 = 0.7935	0.0946 ± 0.00184	–
[2], x1 = 0.8667	0.0645 ± 0.00139	–
[2], x1 = 0.9349	0.0338 ± 0.000908	–

CCCCCOC(=O)CC [pentyl propanoate] + CCCCCCCCC
Details	excess molar enthalpy [kcal/mol]	excess molar volume [m3/mol]
[1], x1 = 0.0661	–	1.34e-07 ± 1.6e-08
[1], x1 = 0.1312	–	2.47e-07 ± 1.7e-08
[1], x1 = 0.1902	–	3.19e-07 ± 1.7e-08
[1], x1 = 0.2517	–	3.88e-07 ± 1.7e-08
[1], x1 = 0.3122	–	4.31e-07 ± 1.8e-08
[1], x1 = 0.3722	–	4.6e-07 ± 1.8e-08
[1], x1 = 0.4344	–	4.77e-07 ± 1.8e-08
[1], x1 = 0.4911	–	4.73e-07 ± 1.8e-08
[1], x1 = 0.5498	–	4.62e-07 ± 1.8e-08
[1], x1 = 0.6072	–	4.37e-07 ± 1.8e-08
[1], x1 = 0.6646	–	3.9e-07 ± 1.7e-08
[1], x1 = 0.7225	–	3.49e-07 ± 1.7e-08
[1], x1 = 0.778	–	2.91e-07 ± 1.7e-08
[1], x1 = 0.8335	–	2.41e-07 ± 1.7e-08
[1], x1 = 0.8887	–	1.69e-07 ± 1.6e-08
[1], x1 = 0.9434	–	1.01e-07 ± 1.6e-08
[2], x1 = 0.0584	0.0448 ± 0.0011	–
[2], x1 = 0.1266	0.0882 ± 0.00174	–
[2], x1 = 0.1948	0.124 ± 0.00229	–
[2], x1 = 0.2641	0.151 ± 0.00263	–
[2], x1 = 0.329	0.168 ± 0.00311	–
[2], x1 = 0.3907	0.178 ± 0.00311	–
[2], x1 = 0.4467	0.183 ± 0.00311	–
[2], x1 = 0.4973	0.184 ± 0.00311	–
[2], x1 = 0.5431	0.181 ± 0.00311	–
[2], x1 = 0.576	0.176 ± 0.00311	–
[2], x1 = 0.5969	0.173 ± 0.00311	–
[2], x1 = 0.6505	0.161 ± 0.00287	–
[2], x1 = 0.7085	0.145 ± 0.00263	–
[2], x1 = 0.7683	0.124 ± 0.00229	–
[2], x1 = 0.8297	0.0982 ± 0.00191	–
[2], x1 = 0.8907	0.067 ± 0.00143	–
[2], x1 = 0.9492	0.0339 ± 0.000932	–

CCCCCOC(=O)CC [pentyl propanoate] + CCCCCCCCCCC
Details	excess molar enthalpy [kcal/mol]	excess molar volume [m3/mol]
[1], x1 = 0.079	–	1.89e-07 ± 1.6e-08
[1], x1 = 0.1498	–	3.48e-07 ± 1.7e-08
[1], x1 = 0.2179	–	4.36e-07 ± 1.8e-08
[1], x1 = 0.2836	–	5.2e-07 ± 1.8e-08
[1], x1 = 0.3484	–	5.69e-07 ± 1.8e-08
[1], x1 = 0.4116	–	6.03e-07 ± 1.8e-08
[1], x1 = 0.4733	–	6.14e-07 ± 1.8e-08
[1], x1 = 0.5329	–	6.13e-07 ± 1.8e-08
[1], x1 = 0.5902	–	5.99e-07 ± 1.8e-08
[1], x1 = 0.6462	–	5.83e-07 ± 1.8e-08
[1], x1 = 0.7023	–	5.24e-07 ± 1.8e-08
[1], x1 = 0.7545	–	4.67e-07 ± 1.8e-08
[1], x1 = 0.8065	–	3.79e-07 ± 1.7e-08
[1], x1 = 0.8561	–	3.1e-07 ± 1.7e-08
[1], x1 = 0.9045	–	2.2e-07 ± 1.7e-08
[1], x1 = 0.9538	–	1.21e-07 ± 1.6e-08
[2], x1 = 0.0724	0.0592 ± 0.00131	–
[2], x1 = 0.153	0.109 ± 0.00208	–
[2], x1 = 0.229	0.148 ± 0.00263	–
[2], x1 = 0.3051	0.179 ± 0.00311	–
[2], x1 = 0.3748	0.197 ± 0.00335	–
[2], x1 = 0.4452	0.206 ± 0.00359	–
[2], x1 = 0.5015	0.206 ± 0.00359	–
[2], x1 = 0.5466	0.201 ± 0.00359	–
[2], x1 = 0.556	0.2 ± 0.00359	–
[2], x1 = 0.6046	0.192 ± 0.00335	–
[2], x1 = 0.6573	0.179 ± 0.00311	–
[2], x1 = 0.7137	0.161 ± 0.00287	–
[2], x1 = 0.7726	0.14 ± 0.00263	–
[2], x1 = 0.8314	0.112 ± 0.0021	–
[2], x1 = 0.8897	0.0786 ± 0.0016	–
[2], x1 = 0.9449	0.0436 ± 0.00108	–
